Experimental data published in ChEMBL document CHEMBL4316622, “Discovery of novel pyrazole derivatives as potential anticancer agents in MCL” (Bioorg Med Chem Lett, 2019).

Tested on: Rec1
Experiment: Antiproliferative activity against human Rec1 cells assessed as inhibition of cell proliferation incubated for 72 hrs by Cell-titer-Glo luminescent cell viability assay
Format: functional, cell-based
Conditions: Rec1, 72 h

SMILES	IC50 [µM]
CCOC(=O)c1cc(-c2ccc(Oc3ccccc3)cc2)nn1Cc1cccc(NC(=O)CCl)c1	0.4
O=C(CCl)Nc1ccc(Cn2nc(-c3ccc(Oc4ccccc4)cc3)cc2C(=O)O)cc1	4
C=CC(=O)Nc1ccc(Cn2nc(-c3ccc(Oc4ccccc4)cc3)cc2CO)cc1	3.5
C/C=C/C(=O)N1CCCC(n2nc(-c3ccc(Oc4ccccc4)cc3)cc2C(=O)O)C1 (racemic)	31
C/C=C/C(=O)N1CCCC(n2nc(-c3ccc(Oc4ccccc4)cc3)cc2CO)C1 (racemic)	27.2
O=C(O)c1cc(-c2ccc(Oc3ccccc3)cc2)nn1C1CCCN(C(=O)CCl)C1 (racemic)	2.2
C=CC(=O)N1CCCC(n2nc(-c3ccc(Oc4ccccc4)cc3)cc2C(=O)O)C1 (racemic)	50
C=CC(=O)N1CCCC(n2nc(-c3ccc(Oc4ccccc4)cc3)cc2C(=O)OCC)C1 (racemic)	13.8
C/C=C/C(=O)N1CCCC(n2nc(-c3ccc(Oc4ccccc4)cc3)cc2C(=O)OCC)C1 (racemic)	5.1
C=CC(=O)N1CCCC(n2nc(-c3ccc(Oc4ccccc4)cc3)cc2CO)C1 (racemic)	5.4
O=C(CCl)N1CCCC(n2nc(-c3ccc(Oc4ccccc4)cc3)cc2CO)C1 (racemic)	0.4
CCOC(=O)c1cc(-c2ccc(Oc3ccccc3)cc2)nn1C1CCCN(C(=O)CCl)C1 (racemic)	0.4
C=CC(=O)N1CCC[C@@H](n2nc(-c3ccc(Oc4ccccc4)cc3)c3c(N)ncnc32)C1 [IBRUTINIB]	1.1

Tested on: JeKo-1
Experiment: Antiproliferative activity against human JeKo1 cells assessed as inhibition of cell proliferation incubated for 72 hrs by Cell-titer-Glo luminescent cell viability assay
Format: functional, cell-based
Conditions: JeKo-1, 72 h

SMILES	IC50 [µM]
CCOC(=O)c1cc(-c2ccc(Oc3ccccc3)cc2)nn1Cc1cccc(NC(=O)CCl)c1	0.4
O=C(CCl)Nc1ccc(Cn2nc(-c3ccc(Oc4ccccc4)cc3)cc2C(=O)O)cc1	2.5
C=CC(=O)Nc1ccc(Cn2nc(-c3ccc(Oc4ccccc4)cc3)cc2CO)cc1	8
C/C=C/C(=O)N1CCCC(n2nc(-c3ccc(Oc4ccccc4)cc3)cc2C(=O)O)C1 (racemic)	> 60
C/C=C/C(=O)N1CCCC(n2nc(-c3ccc(Oc4ccccc4)cc3)cc2CO)C1 (racemic)	> 60
O=C(O)c1cc(-c2ccc(Oc3ccccc3)cc2)nn1C1CCCN(C(=O)CCl)C1 (racemic)	3.6
C=CC(=O)N1CCCC(n2nc(-c3ccc(Oc4ccccc4)cc3)cc2C(=O)O)C1 (racemic)	> 60
C=CC(=O)N1CCCC(n2nc(-c3ccc(Oc4ccccc4)cc3)cc2C(=O)OCC)C1 (racemic)	21.2
C/C=C/C(=O)N1CCCC(n2nc(-c3ccc(Oc4ccccc4)cc3)cc2C(=O)OCC)C1 (racemic)	26.5
C=CC(=O)N1CCCC(n2nc(-c3ccc(Oc4ccccc4)cc3)cc2CO)C1 (racemic)	11.9
O=C(CCl)N1CCCC(n2nc(-c3ccc(Oc4ccccc4)cc3)cc2CO)C1 (racemic)	7.8
CCOC(=O)c1cc(-c2ccc(Oc3ccccc3)cc2)nn1C1CCCN(C(=O)CCl)C1 (racemic)	0.8
C=CC(=O)N1CCC[C@@H](n2nc(-c3ccc(Oc4ccccc4)cc3)c3c(N)ncnc32)C1 [IBRUTINIB]	1.5

Tested on: Maver1
Experiment: Antiproliferative activity against human Maver1 cells assessed as inhibition of cell proliferation incubated for 72 hrs by Cell-titer-Glo luminescent cell viability assay
Format: functional, cell-based
Conditions: Maver1, 72 h

SMILES	IC50 [µM]
CCOC(=O)c1cc(-c2ccc(Oc3ccccc3)cc2)nn1Cc1cccc(NC(=O)CCl)c1	0.5
O=C(CCl)Nc1ccc(Cn2nc(-c3ccc(Oc4ccccc4)cc3)cc2C(=O)O)cc1	1.2
C=CC(=O)Nc1ccc(Cn2nc(-c3ccc(Oc4ccccc4)cc3)cc2CO)cc1	7
C/C=C/C(=O)N1CCCC(n2nc(-c3ccc(Oc4ccccc4)cc3)cc2C(=O)O)C1 (racemic)	> 60
C/C=C/C(=O)N1CCCC(n2nc(-c3ccc(Oc4ccccc4)cc3)cc2CO)C1 (racemic)	> 60
O=C(O)c1cc(-c2ccc(Oc3ccccc3)cc2)nn1C1CCCN(C(=O)CCl)C1 (racemic)	0.4
C=CC(=O)N1CCCC(n2nc(-c3ccc(Oc4ccccc4)cc3)cc2C(=O)O)C1 (racemic)	> 60
C=CC(=O)N1CCCC(n2nc(-c3ccc(Oc4ccccc4)cc3)cc2C(=O)OCC)C1 (racemic)	> 60
C/C=C/C(=O)N1CCCC(n2nc(-c3ccc(Oc4ccccc4)cc3)cc2C(=O)OCC)C1 (racemic)	19.6
C=CC(=O)N1CCCC(n2nc(-c3ccc(Oc4ccccc4)cc3)cc2CO)C1 (racemic)	30.5
O=C(CCl)N1CCCC(n2nc(-c3ccc(Oc4ccccc4)cc3)cc2CO)C1 (racemic)	1.1
CCOC(=O)c1cc(-c2ccc(Oc3ccccc3)cc2)nn1C1CCCN(C(=O)CCl)C1 (racemic)	1.2
C=CC(=O)N1CCC[C@@H](n2nc(-c3ccc(Oc4ccccc4)cc3)c3c(N)ncnc32)C1 [IBRUTINIB]	10.4

Tested on: Z-138
Experiment: Antiproliferative activity against human Z138 cells assessed as inhibition of cell proliferation incubated for 72 hrs by Cell-titer-Glo luminescent cell viability assay
Format: functional, cell-based
Conditions: Z-138, 72 h

SMILES	IC50 [µM]
CCOC(=O)c1cc(-c2ccc(Oc3ccccc3)cc2)nn1Cc1cccc(NC(=O)CCl)c1	0.4
O=C(CCl)Nc1ccc(Cn2nc(-c3ccc(Oc4ccccc4)cc3)cc2C(=O)O)cc1	1.5
C=CC(=O)Nc1ccc(Cn2nc(-c3ccc(Oc4ccccc4)cc3)cc2CO)cc1	6.8
C/C=C/C(=O)N1CCCC(n2nc(-c3ccc(Oc4ccccc4)cc3)cc2C(=O)O)C1 (racemic)	> 60
C/C=C/C(=O)N1CCCC(n2nc(-c3ccc(Oc4ccccc4)cc3)cc2CO)C1 (racemic)	51.1
O=C(O)c1cc(-c2ccc(Oc3ccccc3)cc2)nn1C1CCCN(C(=O)CCl)C1 (racemic)	2.8
C=CC(=O)N1CCCC(n2nc(-c3ccc(Oc4ccccc4)cc3)cc2C(=O)O)C1 (racemic)	> 60
C=CC(=O)N1CCCC(n2nc(-c3ccc(Oc4ccccc4)cc3)cc2C(=O)OCC)C1 (racemic)	44
C/C=C/C(=O)N1CCCC(n2nc(-c3ccc(Oc4ccccc4)cc3)cc2C(=O)OCC)C1 (racemic)	19.1
C=CC(=O)N1CCCC(n2nc(-c3ccc(Oc4ccccc4)cc3)cc2CO)C1 (racemic)	14.6
O=C(CCl)N1CCCC(n2nc(-c3ccc(Oc4ccccc4)cc3)cc2CO)C1 (racemic)	0.4
CCOC(=O)c1cc(-c2ccc(Oc3ccccc3)cc2)nn1C1CCCN(C(=O)CCl)C1 (racemic)	1.3
C=CC(=O)N1CCC[C@@H](n2nc(-c3ccc(Oc4ccccc4)cc3)c3c(N)ncnc32)C1 [IBRUTINIB]	11.3

Tested on: not listed separately
Experiment: Antiproliferative activity against human Mino cells assessed as inhibition of cell proliferation incubated for 72 hrs by Cell-titer-Glo luminescent cell viability assay
Format: functional, cell-based
Conditions: not given

SMILES	IC50 [µM]
CCOC(=O)c1cc(-c2ccc(Oc3ccccc3)cc2)nn1Cc1cccc(NC(=O)CCl)c1	1
O=C(CCl)Nc1ccc(Cn2nc(-c3ccc(Oc4ccccc4)cc3)cc2C(=O)O)cc1	4.5
C=CC(=O)Nc1ccc(Cn2nc(-c3ccc(Oc4ccccc4)cc3)cc2CO)cc1	5.2
C/C=C/C(=O)N1CCCC(n2nc(-c3ccc(Oc4ccccc4)cc3)cc2C(=O)O)C1 (racemic)	> 60
C/C=C/C(=O)N1CCCC(n2nc(-c3ccc(Oc4ccccc4)cc3)cc2CO)C1 (racemic)	45
O=C(O)c1cc(-c2ccc(Oc3ccccc3)cc2)nn1C1CCCN(C(=O)CCl)C1 (racemic)	2.5
C=CC(=O)N1CCCC(n2nc(-c3ccc(Oc4ccccc4)cc3)cc2C(=O)O)C1 (racemic)	> 60
C=CC(=O)N1CCCC(n2nc(-c3ccc(Oc4ccccc4)cc3)cc2C(=O)OCC)C1 (racemic)	42.3
C/C=C/C(=O)N1CCCC(n2nc(-c3ccc(Oc4ccccc4)cc3)cc2C(=O)OCC)C1 (racemic)	11.7
C=CC(=O)N1CCCC(n2nc(-c3ccc(Oc4ccccc4)cc3)cc2CO)C1 (racemic)	15.4
O=C(CCl)N1CCCC(n2nc(-c3ccc(Oc4ccccc4)cc3)cc2CO)C1 (racemic)	6
CCOC(=O)c1cc(-c2ccc(Oc3ccccc3)cc2)nn1C1CCCN(C(=O)CCl)C1 (racemic)	1.2
C=CC(=O)N1CCC[C@@H](n2nc(-c3ccc(Oc4ccccc4)cc3)c3c(N)ncnc32)C1 [IBRUTINIB]	10.1

Tested on: not listed separately
Experiment: Half life in human liver microsomes further incubated of 5 to 60 mins in presence of NADPH regenerating system by LC/MS analysis
Conditions: microsomes

SMILES	half-life [min]
O=C(O)Cc1ccccc1Nc1c(Cl)cccc1Cl [DICLOFENAC]	11.5

Tested on: not listed separately
Experiment: Stability in human liver microsomes assessed as compound remaining incubated of 60 mins in presence of NADPH regenerating system by LC/MS analysis
Conditions: microsomes

SMILES	remaining at 1 h [%]
C[C@]12CC[C@H]3[C@@H](CCC4=CC(=O)CC[C@@]43C)[C@@H]1CC[C@@H]2O [TESTOSTERONE]	4.2

Tested on: not listed separately
Experiment: in vitro
Conditions: human, microsomes
Description: Intrinsic clearance in human liver microsomes further incubated of 5 to 60 mins in presence of NADPH regenerating system by LC/MS analysis

SMILES	microsomal CLint [µL/min/mg]
O=C(O)Cc1ccccc1Nc1c(Cl)cccc1Cl [DICLOFENAC]	121

Tested on: not listed separately
Experiment: in vitro
Conditions: human, microsomes
Remark: another data set of the same source
Description: Hepatic clearance in human liver microsomes further incubated of 5 to 60 mins in presence of NADPH regenerating system by LC/MS analysis

SMILES	CLint scaled [mL/min/kg]
O=C(O)Cc1ccccc1Nc1c(Cl)cccc1Cl [DICLOFENAC]	109
